The results in this text go back to the NIST ThermoML archive (doi:10.1021/je400218d).

For this data set the following is noted: 298.15 K; 101.33 kPa; Crystal; Pycnometric method.

Numbers after ± are expanded uncertainties.

On to `CC1=C(C(=O)O)N2C(=O)[C@@H](NC(=O)[C@H](N)C3=CCC=CC3)[C@H]2SC1` [Cefradin], for which the molar volume is reported as 0.000268 ± 1.6e-05 m3/mol.
